From article PMC12656566, “Toxicokinetic Characterization of MDM Hydantoin via Stable Metabolite DMH: Population Modeling for Predicting Dermal Formaldehyde Formation” (Toxics, 2025)
Where “and” joins values, the source holds several entries; their conditions need not be identical. Equal entries are not always repeated. Where two headings read alike, the source gives them in different places.

Assay: Toxicokinetics after intravenous injection of MDMH or DMH (plasma, LC-MS/MS, non-compartmental analysis)
Format: in vivo
Conditions: rats; for half-life / clearance / Vd / AUC(0-t) / C0 / AUC(0-inf): male, Sprague-Dawley, rat; for half-life / clearance / Vd: plasma; for half-life: iv; for Vd: read-out: Vz; for AUC(0-inf): read-out: AUCinfinity
Procedure: An API 4000 LC-MS/MS system (Applied Biosystems/MDS Sciex, Foster City, CA, USA) coupled with an Agilent 1100 HPLC (Agilent Technologies, Santa Clara, CA, USA) was used for determination of MDMH and DMH in rat plasma. The analytes were separated on a Synergi Fusion-RP 80 Å (150 × 2.0 mm, i.d., 4 µm;) with a Security Guard™ Cartridge AJ0-7556 (Phenomenex, Torrance, CA, USA), and the column oven temperature was maintained at 30 °C. An isocratic solvent system of distilled water and methanol (80:20, v/v) was used with a runtime of 7 min. The injection volume was 10 µL, and the flow rate was maintained at 0.2 mL/min.
For plasma sample preparation, formic acid was immediately added to blood samples upon collection to achieve a final concentration of 0.5% to prevent potential enzymatic degradation of MDMH, and all sample preparation procedures were conducted at ≤4 °C to minimize temperature-dependent decomposition of the analytes. For analysis, 50 μL of internal standard solution and 100 μL of methanol containing 0.5% formic acid (as precipitating solvent) were added to 50 μL of plasma, followed by vortex-mixing for 2 min. After centrifugation at 21,206× g for 10 min, 40 μL of supernatant was mixed with 160 μL of 0.5% formic acid in distilled water, and 10 μL was injected into the LC-MS/MS system.
All animal care and experiments were conducted to evaluate the toxicokinetics of MDMH and DMH according to the Guidelines for the Care and Use of Animal approved by the Ethics Committee for Treatment of Laboratory Animal at Daegu Catholic University (CUD-2019-020). To evaluate the toxicokinetics of MDMH and DMH in rats after intravenous injection (IV) or transdermal application (TD). Male Sprague-Dawley rats (9 weeks, body weight 260–310 g) (Hyochang Science Co., Daegu, Republic of Korea) were kept in plastic cages and fed regularly with water and feed. Rats were acclimated for a minimum of 1 week prior to the experiment under conditions keeping a 12 h light-dark cycle, a temperature of 23 ± 2 °C, and a relative humidity of 50 ± 10%. The rats were cannulated using polyethylene tubing (0.58 mm i.d., 0.96 mm o.d., Natsume, Tokyo, Japan) in the jugular vein after intraperitoneal injection at a dose of 0.9 mL/kg of Zoletil 50 (Virbac, Carros, France).
For IV injection, MDMH or DMH was dissolved in distilled water, respectively, and the dose was 50 or 10 mg/kg, respectively. Blood samples were collected via the jugular vein in the MDMH administration group at 0, 0.5, 1, 1.5, 2, 2.5, 3, 5, 10, and 15 min and 1, 2, 4, 8, 12, and 24 h (16 points/head), and in the DMH administration group at 0, 2, 5, 10, 15, 30 min and 1, 2, 4, 8, 12, and 24 h (12 points/head). Plasma samples were harvested by centrifugation of obtained blood for 10 min at 4000× g, and stored at −20 °C until analysis.
The toxicokinetic parameters were calculated by standard non-compartmental analysis using the non-linear least squares regression program Phoenix™ WinNonlin® 6.1 (Pharsight, Cary, NC, USA).
The non-compartmental toxicokinetic parameters included terminal half-life (t1/2), area under the plasma concentration versus time curve from time zero to the last observation time point (AUClast) and to infinity (AUCinfinity), volume of distribution (Vz), and systemic clearance (CL). The maximum plasma concentration (Cmax) and the time to reach Cmax (Tmax) were obtained directly from the observed data. Absolute bioavailability (F) was estimated as the ratio of the dose-normalized AUCinfinity of MDMH and DMH following TD application compared to IV injection. The fraction metabolized (Fm) was calculated as the ratio of metabolite AUC to parent AUC after correction for molecular weight differences, accounting for the stoichiometric conversion relationship:(1) Fm=AUCDMH·MWMDMH/AUCMDMH·MWDMH where MWMDMH = 158.16 g/mol and MWDMH = 128.13 g/mol. […]

[1] = DMH in plasma after IV injection of DMH 10 mg/kg, n = 5
[2] = DMH after IV injection of DMH 10 mg/kg, n = 5
[3] = MDMH after IV injection of MDMH 50 mg/kg, n = 5
[4] = MDMH in plasma after IV injection of MDMH 50 mg/kg, n = 5

| SMILES | duration of initial distribution phase (alpha phase) (DMH after direct intravenous administration of DMH) | t1/2 [1] [h] | half-life (10 mg/kg, DMH after IV injection of DMH 10 mg/kg, read-out: t1/2 (hour equivalent)) [h] | half-life (10 mg/kg, DMH in plasma after IV injection of DMH 10 mg/kg, n = 5, read-out: t1/2) [h] | clearance [2] [mL/min/kg] | Vd [2] [L/kg] | AUC(0-t) [1] [ng·h/mL] | C0 [1] [µg/mL] | AUC(0-inf) [1] [ng·h/mL] | Fm to DMH (fraction of MDMH metabolized to DMH) (IV injection of MDMH 50 mg/kg, AUC ratio adjusted for molecular weight) | time until parent compound plasma concentrations reached below the quantification limit (MDMH after i.v. injection of MDMH) [min] | half-life (50 mg/kg, MDMH after IV injection of MDMH 50 mg/kg, read-out: t1/2 (hour equivalent)) [h] | half-life (50 mg/kg, MDMH in plasma after IV injection of MDMH 50 mg/kg, n = 5, mean ± S.D., read-out: t1/2) [h] | clearance [3] [mL/min/kg] | Vd [3] [L/kg] | AUC(0-t) [4] [ng·h/mL] | C0 [4] [µg/mL] | AUC(0-inf) [4] [ng·h/mL] |
| --- | --- | --- | --- | --- | --- | --- | --- | --- | --- | --- | --- | --- | --- | --- | --- | --- | --- | --- |
| CC1(C)NC(=O)NC1=O [DMH, 5,5-dimethylhydantoin] | approximately 30 min | 3.0212 ± 0.5513 | 3.02 | 3.02 ± 0.55 | 4 | 1 ± 0.47 | 47100 ± 29900 | 26.9 ± 18.3 | 55000 ± 36800 | – | – | – | – | – | – | – | – | – |
| CC1(C)C(=O)NC(=O)N1CO [MDMH, 1-(Hydroxymethyl)-5,5-dimethylhydantoin] | – | – | – | – | – | – | – | – | – | 97.6 ± 9.6% and 97.59 ± 9.64% | ≤ 5 | 0.007 | 0.00667 ± 0.00167 | 1570 | 0.84 ± 0.04 | 570 ± 190 | 77.9 ± 28.1 | 580 ± 180 |
